Data from patent US20030040015A1, “Methods and reagents for identifying compounds and mutations that modulate dopamine beta-hydroxylase activity” (priority 2001, published 2003).
Blank lines part the entries; values can stand above or below the molecule they belong to.

How the values were obtained:
DBH-/- mouse embryos = conditions: DBH-/- embryos that usually die in utero; Thomas et al.; cited from earlier work
NE deficient patients [1] = conditions: Biaggioni et al. Lancet 1987; cited from earlier work
NE deficient patients [2] = assay: Physiological and pharmacological autonomic function tests in NE deficient patients; format: in vivo, human; conditions: for block of heart rate increase during strain phase (phase II) of the Valsalva maneuver: human, in vivo
From the text: We collected DNA samples from two patients with NE deficiency, and sequenced all exons and exon/intron junctions of their DBH, Phox2a, and Phox2b genes. Resulting novel variants were then examined in the first degree relatives of the NE deficient patients, healthy European-American controls, and in patients with autonomic disorders other than NE deficiency. […] These patients have been previously reported (Robertson D, et al. N Engl J Med; 314:1494, 1986; Biaggioni I, et al. Neurology, 40:370, 1990). The patients were evaluated on the Vanderbilt General Clinical Research Center while in balance on a 150 mEq sodium and 80 mEq potassium diet one week after discontinuation of medications. Both direct and indirect hemodynamic monitoring was carried out and a variety of physiological and pharmacological tests were employed. Catecholamines and their metabolites were analyzed by radioenzymatic and liquid chromatographic methods as described previously (Robertson D, et al. N Engl J Med, 314:1494, 1986; O'Connor D T, et al. Clin Sci, 86:149, 1994).

CHF patients = conditions: recent clinical studies; cited from earlier work

Structure (SMILES): N[C@H](C(=O)O)[C@H](O)c1ccc(O)c(O)c1 [DOPS, dihydroxyphenylserine]
rescue of homozygous mouse embryos (DBH-/- mouse embryos): rescued homozygous mouse embryos
treatment of autonomic and biochemical deficits of NE deficient patients (NE deficient patients [1]): successfully treated

Structure (SMILES): CN1[C@@H]2CC[C@H]1C[C@@H](OC(=O)C(CO)c1ccccc1)C2 (some centres unmarked) [atropine]
block of heart rate increase during strain phase (phase II) of the Valsalva maneuver (NE deficient patients [2]): blocked

Structure (SMILES): COc1ccccc1OCCNCC(O)COc1cccc2[nH]c3ccccc3c12 (centres unmarked) [carvedilol]
mortality and risk of death and hospitalization (CHF patients): reduced mortality and the risk of death and hospitalization

Structure (SMILES): Clc1cccc(Cl)c1N=C1NCCN1 [clonidine]
effect on arterial pressure (NE deficient patients [2]; 0.3 mg po, decrease expected): increase in arterial pressure

hypersensitivity to the tachycardic effect of the β-adrenoreceptor agonist (NE deficient patients [2]; two NE deficient patients): three-fold hypersensitivity
Structure (SMILES): CC(C)NCC(O)c1ccc(O)c(O)c1 (centres unmarked) [isoproterenol]

hypersensitivity to intravenous α1-adrenoreceptor agonist (NE deficient patients [2]; intravenous, two NE deficient patients): four-fold hypersensitivity
Structure (SMILES): CNC[C@H](O)c1cccc(O)c1 [phenylephrine]

Structure (SMILES): CC(C)NCC(O)COc1cccc2ccccc12 (centres unmarked) [propranolol]
block of heart rate increase during strain phase (phase II) of the Valsalva maneuver (NE deficient patients [2]): not

Structure (SMILES): NCCc1ccc(O)cc1 [tyramine]
response to indirectly acting sympathomimetic amine (NE deficient patients [2]; 8 mg IV): absent response

Structure (SMILES): COC(=O)[C@@H]1[C@H]2C[C@H]3c4[nH]c5ccccc5c4CCN3C[C@@H]2CC[C@@H]1O [yohimbine]
effect on blood pressure (NE deficient patients [2]; 10 mg po): no effect
effect on plasma catecholamines (NE deficient patients [2]; 10 mg po): no effect
